Earlier results as cited in patent US12397060B2, “pHLIP®-mediated intracellular delivery of immuno-stimulatory compounds” (University of Rhode Island Board of Trustees, priority 2019, dated 2025).

Tested on: DCs, macrophages, T cells and endothelial cells sorted from B16 tumors
Conditions: stimulated ex vivo, expression highest in macrophages, followed by DCs

Row | Compound | IFN-β expression upon stimulation
1 | Cc1ccc2c(=O)c3cccc(CC(=O)O)c3oc2c1C [DMXAA, 5,6-Dimethylxanthenone-4-acetic acid] | All subsets expressed IFN-β
2 | Nc1ncnc2c1ncn2[C@@H]1O[C@@H]2COP(=O)([S-])O[C@@H]3[C@H](O)[C@@H](COP([O-])(=S)O[C@H]2[C@H]1O)O[C@H]3n1cnc2c(N)ncnc21.[Na+].[Na+] (some centres unmarked) [ML RR-S2 CDA, Dithio-(Rp, Rp)-2′,3′-CDA sodium salt] | All subsets expressed IFN-β
